Assays:
[1] = target: T1, p53 Y220C mutant protein (amino acid residues 94-293) (Homo sapiens, UniProt P04637, Y220C); assay: Surface Plasmon Resonance (SPR) assay, p53 Y220C Kd_kinetic; conditions: multi-cycle kinetics, 16 or 20 °C, pH 7.5, 1:1 binding model
T1 construct: p53 Y220C mutant protein (amino acid residues 94-293)
Procedure, shortened: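 Kd from multi-cycle SPR kinetics fitted to a 1:1 model, using 2-fold, 7-point compound series over p53 Y220C (residues 94-293). Flow 30 μL/min, 60 s association, 120 s dissociation, at 16 or 20 °C in 50 mM Tris pH 7.5, 100 mM NaCl, 1 mM DTT, 0.01% Brij35, 0.05% Tween-20, 1% DMSO.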

[2] = target: T1, p53 Y220C mutant protein (amino acid residues 94-293); assay: Thermal Shift Assay (TSA), p53 Y220C dTM; type: binding
Protocol: […] The volume is 5 μL/well. The sealed plate is then loaded onto a QuantStudio 7 Flex instrument for melting temperature (TM) measurement. The temperature is increased from 30 °C to 50 °C, at a rate of 0.03 °C/second. Data are fit into a Boltzmann two-state model to determine the TM.

p53 Y220C = p53 Y220C (Homo sapiens, UniProt P04637, Y220C); assay: Luciferase Reporter Assay, p53 Y220C (NCIH1299 cells with inducible p53 Y220C and p53 response element-luciferase); type: cell-based; conditions: 6 hour compound treatment, read-out: Luc P53 Y220C AC50
Procedure, shortened: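 NCI-H1299 cells stably carrying a p53 response element-luciferase reporter and Tet-inducible p53 Y220C were induced with 0.5 ug/mL doxycycline for 24 h, then treated with compound for 6 h. Luminescence was read after One-Glo addition. AC50 was derived relative to 10 uM tool compound as positive control.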

NUGC3 cells (p53 Y220C) = assay: Cell Proliferation Assay (CellTiter-Glo), NUGC3 p53 Y220C; type: cell-based; conditions: Homo sapiens, NUGC-3, 120 h, 5 days, read-out: CTG NUGC3 P53 Y220C IC50
Procedure, shortened: (§1)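 Seeded at 250–500 cells/well, then compound-treated for 5 days; the NCIH1299 lines carry Tet-One inducible p53 Y220C or R273H transduced lentivirally. Viability by CellTiter-Glo luminescence after 10 min at room temperature; IC50 calculated.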

[3] = test system: NCIH1299-inducible p53 Y220C cells; assay: Cell Proliferation Assay (CellTiter-Glo), NCIH1299-inducible p53 Y220C; type: cell-based; conditions: Homo sapiens, NCI-H1299, 120 h, 5 days, read-out: CTG H1299 P53 Y220C IC50
Procedure, shortened: as §1

[4] = test system: NCIH1299-inducible p53 R273H cells; assay: Cell Proliferation Assay (CellTiter-Glo), NCIH1299-inducible p53 R273H; type: cell-based; conditions: Homo sapiens, NCI-H1299, 120 h, 5 days, read-out: CTG H1299 P53 R273H IC50
Protocol: Inducible p53 Y220C and R273H constructs (Tet-One inducible expression system; Takara) were stably expressed in NCIH1299 cells by lentiviral transduction. NUGC3, A549, BxPC3, T3M4, HuH7, HCC2935, MFE296, NCIH1299, NCIH1299-inducible p53 Y220C, and NCIH1299-inducible p53 R273H cell lines were used for cell proliferation assay. 250-500 cells were seeded in each well of 384 plate and then compounds were dispensed into each well using Echo or Tecan. After 5 days of incubation, equal volume of CellTiter-Glo reagent (G7570; Promega) was added into each well and the plate was incubated at room temperature for 10 minutes with shaking. The luminescent signal was measured by PheraStar microplate reader and IC50 was calculated.

CN1CC[C@@H](Nc2cccn3c(SC(F)(F)F)c(-c4noc(CNC(=O)C5CC5)n4)nc23)[C@@H](F)C1 [Example 1, N-{[3-(8-{[(3S,4R)-3-fluoro-1-methylpiperidin-4-yl]amino}-3-[(trifluoromethyl)sulfanyl]imidazo[1,2-a]pyridin-2-yl)-1,2,4-oxadiazol-5-yl]methyl}cyclopropanecarboxamide]
Kd [1]: 0.01 to 0.1 µM
ΔTm at 10 µM ([2]; 10 uM compound): 5 to 10 °C
ΔTm at 100 µM ([2]; 100 μM compound, 3 hours at 20 °C, pH 7.4): 5 to 10 °C
AC50 (p53 Y220C): ≥ 3 µM
IC50 (NUGC3 cells (p53 Y220C)): ≥ 3 µM
IC50 [3]: ≥ 3 µM
IC50 [4]: ≥ 10 µM

CN1CC[C@@H](Nc2cccn3c(SC(F)(F)F)c(-c4noc(CNC(=O)c5ccn(C(C)(C)C)c5)n4)cc23)[C@@H](F)C1 [Example 7, 1-tert-butyl-N-{[3-(8-{[(3S,4R)-3-fluoro-1-methylpiperidin-4-yl]amino}-3-[(trifluoromethyl)sulfanyl]indolizin-2-yl)-1,2,4-oxadiazol-5-yl]methyl}pyrrole-3-carboxamide]
Kd [1]: < 0.01 µM
AC50 (p53 Y220C): < 0.75 µM
IC50 (NUGC3 cells (p53 Y220C)): < 0.75 µM
IC50 [3]: < 0.75 µM

C[C@H](NC(=O)C1CC1)c1nc(-c2cc3c(N[C@@H]4CCN(C)C[C@@H]4F)cccn3c2SC(F)(F)F)no1 [Example 52, N-[(1S)-1-[3-(8-{[(3S,4R)-3-fluoro-1-methylpiperidin-4-yl]amino}-3-[(trifluoromethyl)sulfanyl]indolizin-2-yl)-1,2,4-oxadiazol-5-yl]ethyl]cyclopropanecarboxamide]
Kd [1]: 0.01 to 0.1 µM
AC50 (p53 Y220C): ≥ 3 µM
IC50 (NUGC3 cells (p53 Y220C)): ≥ 3 µM
IC50 [3]: ≥ 3 µM

CN1CC[C@@H](Nc2cccn3c(SC(F)(F)F)c(-c4noc(CNC(=O)C5CC5)n4)cc23)[C@@H](F)C1 [Example 3, N-{[3-(8-{[(3S,4R)-3-fluoro-1-methylpiperidin-4-yl]amino}-3-[(trifluoromethyl)sulfanyl]indolizin-2-yl)-1,2,4-oxadiazol-5-yl]methyl}cyclopropanecarboxamide]
Kd [1]: < 0.01 µM
AC50 (p53 Y220C): < 0.75 µM
IC50 (NUGC3 cells (p53 Y220C)): < 0.75 µM
IC50 [3]: < 0.75 µM

COc1csc(C(=O)NCc2nc(-c3cc4c(N[C@@H]5CCN(C)C[C@@H]5F)cccn4c3SC(F)(F)F)no2)c1 [Example 37, N-{[3-(8-{[(3S,4R)-3-fluoro-1-methylpiperidin-4-yl]amino}-3-[(trifluoromethyl)sulfanyl]indolizin-2-yl)-1,2,4-oxadiazol-5-yl]methyl}-4-methoxythiophene-2-carboxamide]
Kd [1]: < 0.01 µM
AC50 (p53 Y220C): < 0.75 µM
IC50 (NUGC3 cells (p53 Y220C)): < 0.75 µM
IC50 [3]: < 0.75 µM

CC(C)C(=O)NCc1nc(-c2cc3c(N[C@@H]4CCN(C)C[C@@H]4F)cccn3c2SC(F)(F)F)no1 [Example 60, N-{[3-(8-{[(3S,4R)-3-fluoro-1-methylpiperidin-4-yl]amino}-3-[(trifluoromethyl)sulfanyl]indolizin-2-yl)-1,2,4-oxadiazol-5-yl]methyl}-2-methylpropanamide]
Kd [1]: 0.01 to 0.1 µM
AC50 (p53 Y220C): 1.5 to 3 µM
IC50 (NUGC3 cells (p53 Y220C)): 1.5 to 3 µM
IC50 [3]: 1.5 to 3 µM

CN1CC[C@@H](Nc2cccn3c(SC(F)(F)F)c(-c4noc(CNC(=O)C5CC(O)C5)n4)cc23)[C@@H](F)C1 (stereo partly drawn) [Example 8, (1r,3r)-N-{[3-(8-{[(3S,4R)-3-fluoro-1-methylpiperidin-4-yl]amino}-3-[(trifluoromethyl)sulfanyl]indolizin-2-yl)-1,2,4-oxadiazol-5-yl]methyl}-3-hydroxycyclobutane-1-carboxamide]
Kd [1]: < 0.01 µM
AC50 (p53 Y220C): 1.5 to 3 µM
IC50 (NUGC3 cells (p53 Y220C)): 1.5 to 3 µM
IC50 [3]: 0.75 to 1.5 µM

COC1(C(=O)NCc2nc(-c3cc4c(N[C@@H]5CCN(C)C[C@@H]5F)cccn4c3SC(F)(F)F)no2)CC1 [Example 26, N-{[3-(8-{[(3S,4R)-3-fluoro-1-methylpiperidin-4-yl]amino}-3-[(trifluoromethyl)sulfanyl]indolizin-2-yl)-1,2,4-oxadiazol-5-yl]methyl}-1-methoxycyclopropane-1-carboxamide]
Kd [1]: 0.01 to 0.1 µM
AC50 (p53 Y220C): 1.5 to 3 µM
IC50 (NUGC3 cells (p53 Y220C)): 1.5 to 3 µM
IC50 [3]: 1.5 to 3 µM

CNC(=O)c1cccc(C(=O)NCc2nc(-c3cc4c(N[C@@H]5CCN(C)C[C@@H]5F)cccn4c3SC(F)(F)F)no2)c1 [Example 58, N1—{[3-(8-{[(3S,4R)-3-fluoro-1-methylpiperidin-4-yl]amino}-3-[(trifluoromethyl)sulfanyl]indolizin-2-yl)-1,2,4-oxadiazol-5-yl]methyl}-N3-methylbenzene-1,3-dicarboxamide]
Kd [1]: < 0.01 µM
AC50 (p53 Y220C): < 0.75 µM
IC50 (NUGC3 cells (p53 Y220C)): < 0.75 µM
IC50 [3]: < 0.75 µM

C[C@@H](O)CC(=O)NCc1nc(-c2cc3c(N[C@@H]4CCN(C)C[C@@H]4F)cccn3c2SC(F)(F)F)no1 [Example 63, (3R)-N-{[3-(8-{[(3S,4R)-3-fluoro-1-methylpiperidin-4-yl]amino}-3-[(trifluoromethyl)sulfanyl]indolizin-2-yl)-1,2,4-oxadiazol-5-yl]methyl}-3-hydroxybutanamide]
Kd [1]: < 0.01 µM
AC50 (p53 Y220C): 1.5 to 3 µM
IC50 (NUGC3 cells (p53 Y220C)): 1.5 to 3 µM
IC50 [3]: ≥ 3 µM

COc1ccc2cc(C(=O)NCc3nc(-c4cc5c(N[C@@H]6CCN(C)C[C@@H]6F)cccn5c4SC(F)(F)F)no3)n(C)c2c1 [Example 35, N-{[3-(8-{[(3S,4R)-3-fluoro-1-methylpiperidin-4-yl]amino}-3-[(trifluoromethyl)sulfanyl]indolizin-2-yl)-1,2,4-oxadiazol-5-yl]methyl}-6-methoxy-1-methylindole-2-carboxamide]
Kd [1]: 0.01 to 0.1 µM
AC50 (p53 Y220C): ≥ 3 µM
IC50 (NUGC3 cells (p53 Y220C)): 1.5 to 3 µM
IC50 [3]: 1.5 to 3 µM

CN1CC[C@@H](Nc2cccn3c(SC(F)(F)F)c(-c4nsc(CNC(=O)c5ccn(C(C)(C)C)c5)n4)cc23)[C@@H](F)C1 [Example 6, 1-tert-butyl-N-{[3-(8-{[(3S,4R)-3-fluoro-1-methylpiperidin-4-yl]amino}-3-[(trifluoromethyl)sulfanyl]indolizin-2-yl)-1,2,4-thiadiazol-5-yl]methyl}pyrrole-3-carboxamide]
Kd [1]: ≥ 1 µM
AC50 (p53 Y220C): ≥ 3 µM
IC50 (NUGC3 cells (p53 Y220C)): ≥ 3 µM
IC50 [3]: ≥ 3 µM

COc1ccc2nc(C(=O)NCc3nc(-c4cc5c(N[C@@H]6CCN(C)C[C@@H]6F)cccn5c4SC(F)(F)F)no3)ccc2c1 [Example 34, N-{[3-(8-{[(3S,4R)-3-fluoro-1-methylpiperidin-4-yl]amino}-3-[(trifluoromethyl)sulfanyl]indolizin-2-yl)-1,2,4-oxadiazol-5-yl]methyl}-6-methoxyquinoline-2-carboxamide]
Kd [1]: 0.01 to 0.1 µM
AC50 (p53 Y220C): ≥ 3 µM
IC50 (NUGC3 cells (p53 Y220C)): 1.5 to 3 µM
IC50 [3]: 1.5 to 3 µM

CN1CC[C@@H](Nc2cccn3c(SC(F)(F)F)c(-c4noc(CNC(=O)C#CC5(NC(=O)OC(C)(C)C)CC5)n4)cc23)[C@@H](F)C1 [Example 44, tert-butyl N-{1-[2-({[3-(8-{[(3S,4R)-3-fluoro-1-methylpiperidin-4-yl]amino}-3-[(trifluoromethyl)sulfanyl]indolizin-2-yl)-1,2,4-oxadiazol-5-yl]methyl}carbamoyl)eth-1-yn-1-yl]cyclopropyl}carbamate]
Kd [1]: < 0.01 µM
AC50 (p53 Y220C): < 0.75 µM
IC50 (NUGC3 cells (p53 Y220C)): 0.75 to 1.5 µM
IC50 [3]: < 0.75 µM

Reference: US20260347353A1, “INDOLIZINE DERIVATIVES FOR TREATING CANCER” (Antares Therapeutics, Inc., priority 2022, published 2026)
